# In patent publication US20260242416A1, “ANTIMICROBIAL PEPTIDES” (priority 2023, published 2026):
# Where a SMILES comes first, the peptide text is derived from it.
# Experiments:
# [1] = test system: Escherichia coli ATCC 25922; test: Antimicrobial susceptibility testing (MIC/MBC), Example 1; format: cell-based; settings: Table 3; footnote: wild-type Escherichia coli ATCC 29522; minimum of three independent experiments
# Experimental: Twenty-one putative AMP sequences identified using the rAMPage pipeline were validated through a minimum of three AST experiments performed independently on separate days. In these tests, the AMP activity was assessed using two metrics: minimum inhibitory concentration and minimum bactericidal concentration (MIC and MBC, respectively). MIC and MBC values were determined using procedures outlined by the Clinical and Laboratory Standards Institute (CLSI), with the recommended adaptations for the testing of cationic AMPs described previously. “Wild-type” strains of Escherichia coli (E. coli 25922) and Staphylococcus aureus (S. aureus 29213) were purchased from the American Type Culture Collection (ATCC; Manassas, VA, USA) and were used for screening of antimicrobial activity. Briefly, putative AMPs were synthesized by Genscript (Piscataway, NJ, USA) and received in lyophilized format. These peptides were suspended using ultrapure water (Life Technologies, Grand Island, NY, USA; Invitrogen cat #10977-015), and an 11 μL two-fold serial dilution of 1280 to 2.5 μg/mL was prepared in duplicate rows in a 96-well microtiter plate, before being combined with 100 μL standardized bacterial inoculum yielding a final duplicate testing range of 128 to 0.25 μg/mL. The bacterial inoculum was prepared using colonies isolated on non-selective agar and combined with Mueller Hinton Broth. This suspension was measured and adjusted to achieve an optical density of 0.08-0.1, equivalent to a 0.5 McFarland standard (1-2×10^8 cfu/mL). The inoculum was then diluted to a target concentration of 5±3×10^5 cfu/mL; total viable counts from the final inoculum were routinely performed to confirm the target bacterial density was achieved. […] The MIC and adjacent wells were plated onto non-selective agar; the concentration in which killed 99.9% of the inoculum following additional overnight incubation was determined to be the MBC.
# [2] = test system: E. coli ATCC 25922, Salmonella Enteritidis, S. aureus ATCC 29213; test: Broth microdilution, panel result (at least one / all strains), Example 2; format: cell-based; parameters: key to inhibitory activity (asterisk): *Indicates inhibitory activity; settings: Table 14; against at least one of E. coli ATCC 25922, Salmonella Enteritidis, S. aureus ATCC 29213
# Procedure, shortened: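 CLSI broth microdilution adapted for cationic peptides, in MHB with a final inoculum of 2-8×10^5 cfu/mL in polypropylene plates. Peptides were serially diluted from 128 down to 0.5 μg/mL and incubated 20-24 h at 37° C. MIC is the lowest concentration with no visible growth.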
SMILES,MIC* (μg/mL) E. coli [1] [µg⁻¹ mL⁻¹],inhibitory activity (asterisk) [2]
CC[C@H](C)[C@H](NC(=O)[C@H](CCCCN)NC(=O)[C@H](CS)NC(=O)[C@H](CCCCN)NC(=O)[C@H](CC(C)C)NC(=O)[C@H](CC(N)=O)NC(=O)[C@H](Cc1ccc(O)cc1)NC(=O)[C@H](CC(C)C)NC(=O)[C@H](CC(C)C)NC(=O)[C@@H](NC(=O)[C@@H](NC(=O)[C@H](C)NC(=O)[C@@H](NC(=O)[C@H](CC(N)=O)NC(=O)[C@H](CCCCN)NC(=O)[C@H](C)NC(=O)[C@@H](NC(=O)[C@H](CC(N)=O)NC(=O)[C@H](CCCCN)NC(=O)[C@H](C)NC(=O)[C@@H](NC(=O)[C@H](CC(=O)O)NC(=O)[C@H](CCSC)NC(=O)[C@H](Cc1ccccc1)NC(=O)CN)[C@@H](C)O)C(C)C)C(C)C)C(C)C)[C@@H](C)O)C(=O)N[C@H](C(=O)N[C@@H](CCCCN)C(=O)N[C@@H](C)C(=O)N[C@@H](CS)C(=O)O)[C@@H](C)O [OdMa12] (H-GFMDTAKNVAKNVAVTLLYNLKCKITKAC-OH; N-terminus and C-terminus assumed),4,69.* GFMDTAKNVAKNVAVTLLYNLKCKITKAC
CC[C@H](C)[C@H](NC(=O)CNC(=O)[C@H](C)NC(=O)[C@@H](NC(=O)[C@H](CC(N)=O)NC(=O)[C@H](CCCCN)NC(=O)[C@H](C)NC(=O)[C@H](C)NC(=O)CNC(=O)[C@H](CCCCN)NC(=O)[C@@H](NC(=O)[C@@H](NC(=O)[C@H](CC(=O)O)NC(=O)[C@H](CC(C)C)NC(=O)[C@H](CC(C)C)NC(=O)[C@H](CC(C)C)NC(=O)CN)[C@@H](C)O)C(C)C)C(C)C)C(=O)N[C@@H](CC(C)C)C(=O)N[C@@H](CC(C)C)C(=O)N[C@@H](CC(N)=O)C(=O)N[C@@H](CCCCN)C(=O)N[C@@H](CC(C)C)C(=O)N[C@@H](CCCCN)C(=O)N[C@@H](CS)C(=O)N[C@@H](CCCCN)C(=O)N[C@H](C(=O)N[C@H](C(=O)NCC(=O)N[C@@H](CC(=O)O)C(=O)N[C@@H](CS)C(=O)O)[C@@H](C)O)C(C)C [PeNi10] (H-GLLLDTVKGAAKNVAGILLNKLKCKVTGDC-OH; N-terminus and C-terminus assumed),8,1086.* GLLLDTVKGAAKNVAGILLNKLKCKVTGDC
CC[C@H](C)[C@H](NC(=O)CN)C(=O)N[C@@H](CC(C)C)C(=O)N[C@H](C(=O)N[C@@H](CC(=O)O)C(=O)N[C@H](C(=O)N[C@@H](CC(C)C)C(=O)N[C@@H](CCCCN)C(=O)NCC(=O)N[C@@H](C)C(=O)N[C@@H](C)C(=O)N[C@@H](CCCCN)C(=O)N[C@@H](CC(N)=O)C(=O)N[C@H](C(=O)N[C@@H](C)C(=O)NCC(=O)N[C@H](C(=O)N[C@@H](CC(C)C)C(=O)N[C@@H](CC(C)C)C(=O)N[C@@H](CC(=O)O)C(=O)N[C@@H](CCCCN)C(=O)N[C@@H](CC(C)C)C(=O)N[C@@H](CCCCN)C(=O)N[C@@H](CS)C(=O)N[C@@H](CCCCN)C(=O)N[C@H](C(=O)N[C@H](C(=O)NCC(=O)NCC(=O)N[C@@H](CS)C(=O)O)[C@@H](C)O)[C@@H](C)CC)C(C)C)C(C)C)[C@@H](C)O)[C@@H](C)O [PeNi11] (H-GILTDTLKGAAKNVAGVLLDKLKCKITGGC-OH; N-terminus and C-terminus assumed),8 to 16,1087.* GILTDTLKGAAKNVAGVLLDKLKCKITGGC
